# In patent publication US20110183978A1, “Phenylpyri(mi)dinylazoles” (Bayer CropScience AG, priority 2009, published 2011):
# Read-outs that look alike come from different tables or passages of the source.
# Experiments:
# Botrytis cinerea [1] = assay: Example B: in vivo test on Botrytis cinerea (grey mould on cucumbers); settings: cucumber plants sprayed 24 hours before inoculation, scored after 5-7 days, read-out: % Wirkungsgrad
# Description: In Vivo Test on Botrytis Cinerea (Grey Mould on Cucumbers) An aqueous suspension of the active substance was prepared by homogenization of a mixture of acetone/Tween/dimethyl sulphoxide and subsequent dilution with water to the desired concentration. Cucumber plants (variety: Vert petit de Paris) are sown in cultivation dishes on a peat-pozzolanic earth substrate (50/50) at 18-20° C. and sprayed at the cotyledon stage Z11 with the aqueous suspension described above. As a control, plants are sprayed with an aqueous solution with no active substance. […] The spores are derived from a 15 day-old culture which are suspended in the following nutrient solution: • 20 g/l gelatine • 50 g/l D-fructose • 2 g/l NH4NO3 • 1 g/l KH2PO4 The inoculated cucumber plants are kept for 5-7 days in a climatic chamber at […] After 5-7 days they are scored in comparison with the control plants.
# [2] = tested on: Mycosphaerella graminicola; assay: Example G: in vivo test on Mycosphaerella graminicola (wheat leaf blotch disease); settings: Zymoseptoria tritici, wheat plants sprayed 24 hours before inoculation, scored after 21 to 28 days, read-out: % Wirkungsgrad
# Description: In Vivo Test on Mycosphaerella Graminicola (Wheat Leaf Blotch Disease) An aqueous suspension of the active substance was prepared by homogenization of a mixture of acetone/Tween/dimethyl sulphoxide and subsequent dilution with water to the desired concentration. Wheat plants (variety: Scipion) are sown in cultivation dishes on a peat-pozzolanic earth substrate (50/50) at 12° C. and sprayed at the first-leaf stage (10 cm size) with the aqueous suspension described above. As a control, plants are sprayed with an aqueous solution with no active substance. After 24 hours the plants are inoculated by spraying with an aqueous suspension of Mycosphaerella graminicola spores (500,000 spores per ml). The spores are derived from a 7 day-old culture. […] After 21 to 28 days they are scored in comparison with the control plants.
# Sphaerotheca fuliginea [3] = assay: Example D: in vivo test on Sphaerotheca fuliginea (powdery mildew on cucumber); settings: Podosphaera fuliginea, 288 h, cucumber plants sprayed 24 hours before inoculation, scored after 12 days, read-out: % Wirkungsgrad
# Description: In Vivo Test on Sphaerotheca Fuliginea (Powdery Mildew on Cucumber) An aqueous suspension of the active substance was prepared by homogenization of a mixture of acetone/Tween/dimethyl sulphoxide and subsequent dilution with water to the desired concentration. Cucumber plants (variety: Vert petit de Paris) are sown in cultivation dishes on a peat-pozzolanic earth substrate (50/50) at 20/23° C. and at the cotyledon stage Z10 sprayed with the aqueous suspension described above. As a control, plants are sprayed with an aqueous solution with no active substance. After 24 hours the plants are inoculated by spraying with an aqueous suspension of Sphaerotheca fuliginea spores (100,000 spores per ml). The spores are derived from a contaminated plant. The inoculated cucumber plants are incubated at ca. 20/25° C. at a relative atmospheric humidity of 60/70%. After 12 days they are scored in comparison with the control plants.
# Rhizoctonia solani = assay: Example W: in vivo test on Rhizoctonia solani (sheath blight in rice/protective); settings: 96 h, rice, protective, 250 ppm active substance, assessed 4 days after inoculation, read-out: % Activity level
# Description: Solvent: 28.5 parts by weight acetone Emulsifier: 1.5 parts by weight alkylaryl polyglycol ethers For the preparation of a suitable active substance preparation, 1 part by weight of active substance is mixed with the stated quantities of solvent and emulsifier and the concentrate is diluted to the desired concentration with water. For the testing for protective activity, young rice plants are sprayed with the active substance preparation at the stated application dosage. One day after the treatment, the plants are inoculated with hyphae of Rhizoctonia solani. […] 4 days after the inoculation, the assessment takes place.
# Fusarium graminearum [4] = assay: microbe, parasite or virus in culture; format: cell-based
# Alternaria solani = assay: Example M: in vivo test on Alternaria solani (leaf blotch disease/tomato/protective); settings: 168 h, tomato, protective, 500 ppm active substance, assessed 7 days after inoculation, read-out: % Wirkungsgrad (activity level)
# How it was run: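 Alternaria solani infection on tomato scored 7 days post-inoculation. Before inoculation, young plants received a protective spray at the stated application dose; formulation was compound mixed with N,N-dimethylformamide and emulsifier, water-diluted.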
# Fusarium proliferatum = assay: Example I: production of fumonisin FB1 by Fusarium proliferatum (microtitre plates); format: cell-based; settings: 120 h
# Aspergillus parasiticus = assay: microbe, parasite or virus in culture; format: cell-based; settings: 168 h
# Sphaerotheca fuliginea [5] = assay: Example L: in vivo test on Sphaerotheca fuliginea (powdery mildew on cucumber/protective); settings: Podosphaera fuliginea, 168 h, cucumber, protective, assessment 7 days after inoculation, read-out: % Wirkungsgrad
# How it was run: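 Young cucumber plants sprayed at stated dosage with compound in DMF/alkylaryl polyglycol ether emulsifier diluted in water; inoculated with S. fuliginea spores one day later. Kept in greenhouse at 70% relative humidity, 23° C; protective activity assessed 7 days after inoculation.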
# Fusarium graminearum [6] = assay: whole plant or invertebrate; format: in vivo; settings: in Hordeum vulgare, 120 h, read-out: % Wirkungsgrad (activity level)
# Botrytis cinerea [7] = assay: Example P: in vivo test on Botrytis cinerea (gray mould on bean/protective); settings: 48 h, bean, protective, 250 ppm active substance, assessed 2 days after inoculation, read-out: % Wirkungsgrad (activity level)
# How it was run: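 Infection blotch size on leaves was scored 2 days after placing 2 Botrytis-colonised agar pieces per leaf. Inoculation followed drying of a protective spray applied to young plants at the stated dosage. Spray was prepared by diluting compound with solvent and alkylaryl polyglycol ether emulsifier in water.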
# Venturia inaequalis = assay: Example O: in vivo test on Venturia inaequalis (apple scab/protective); settings: 240 h, protective, assessment 10 days after inoculation, read-out: % Wirkungsgrad
# How it was run: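 Young plants received a preventive spray of compound formulated as an emulsifier-containing aqueous dilution at the given application rate, then were inoculated with apple scab fungus. Disease was scored 10 days post-inoculation.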
# [8] = tested on: Fusarium nivale (var. majus); assay: whole plant or invertebrate; format: in vivo; settings: Microdochium nivale, in Triticum aestivum, 120 h, read-out: % Wirkungsgrad (activity level)
# Leptosphaeria nodorum = assay: Example Q: in vivo test on Leptosphaeria nodorum (glume blotch in wheat/protective); settings: Parastagonospora nodorum, 192 h, wheat, protective, assessment 8 days after inoculation, read-out: % Wirkungsgrad
# Description: (§1) Solvent: 49 parts by weight N,N-dimethylacetamide Emulsifier: 1 part by weight alkylaryl polyglycol ethers For the preparation of a suitable active substance preparation, 1 part by weight of active substance is mixed with the stated quantities of solvent and emulsifier and the concentrate is diluted to the desired concentration with water. For the testing for protective activity, young plants are sprayed with the active substance preparation at the stated application dosage. After drying of the spray coating, the plants are sprayed with spores with a spore suspension of Leptosphaeria nodorum. […] 8 days after the inoculation, the assessment takes place.
# Septoria tritici = assay: Example R: in vivo test on Septoria tritici (leaf blotch in wheat/protective); settings: Zymoseptoria tritici, 504 h, wheat, protective, 1000 ppm active substance, assessed 21 days after inoculation, read-out: % Wirkungsgrad (activity level)
# Description: as §1, with “with” for “with spores with”, “Septoria tritici.” for “Leptosphaeria nodorum.”, “21” for “8”
# Plasmopara viticola = assay: Example N: in vivo test on Plasmopara viticola (downy mildew, vine/protective); settings: 144 h, vine, protective, assessment 6 days after inoculation, read-out: % Wirkungsgrad
# Description: Emulsifier: 1 part by weight alkylaryl polyglycol ethers For the preparation of a suitable active substance preparation, 1 part by weight of active substance is mixed with the stated quantities of solvent and emulsifier and the concentrate is diluted to the desired concentration with water. For the testing for protective activity, young plants are sprayed with the active substance preparation at the stated application dosage. […] The plants are then moistened and placed in an incubation cabin for 1 day. 6 days after the inoculation, the assessment takes place.
# [9] = LogPA (logP of the stated pure compound or, in a mixture, of the main isomer, 1-substituted 3-aryl-1H-pyrazole)
# [10] = 72 h, read-out: % Inhibition des Pilzwachstums bei 50 μM
# [11] = 168 h, read-out: % Inhibition der DON/AcDON produktion bei 50 μM
# [12] = Fusarium proliferatum growth, OD 620, 5 days, read-out: % Inhibition des Pilzwachstums bei 50 μM
# [13] = Fusarium proliferatum, 5 days at 20° C., HPLC-MS/MS, read-out: % Inhibition der FB1 produktion bei 50 μM
# [14] = 50 μM, 7 days at 20° C., read-out: Inhibition der Aflatoxin produktion bei 50 μM
# [15] = read-out: % Inhibition des Pilzwachstums bei 50 μM
SMILES,pest or weed control at 500 ppm (Botrytis cinerea [1]),pest or weed control at 500 ppm [2],chromatographic logP (physchem; [9]),inhibition at 50 µM (Fusarium graminearum [4]; [10]),inhibition at 50 µM (Fusarium graminearum [4]; [11]),pest or weed control at 500 ppm (Alternaria solani),pest or weed control at 500 ppm (Sphaerotheca fuliginea [5]),pest or weed control at 250 ppm (Botrytis cinerea [7]),chromatographic logP (physchem; LogPA),other results
Fc1cccc(F)c1-c1nn(C2CCC2)cc1-c1ccncc1 [Compound 8],94%,92%,1.56,–,–,–,–,–,–,–
CC(C)Cn1cc(-c2ccncc2)c(-c2c(F)cccc2F)n1 [Compound 13],100%,95%,1.62,–,–,–,–,–,–,pest or weed control at 500 ppm (Sphaerotheca fuliginea [3]): 90%
CC(C)n1cc(-c2ccncc2)c(-c2c(F)cccc2F)n1 [Compound 14],100%,88%,1.4,–,–,–,–,–,–,pest or weed control at 500 ppm (Sphaerotheca fuliginea [3]): 80%
Fc1cccc(F)c1-c1c(-c2ccncc2)cnn1C1CCCC1 [Compound 17],83%,88%,1.74,–,–,–,–,–,–,pest or weed control at 500 ppm (Sphaerotheca fuliginea [3]): 80%
CC(c1cccc(Cl)c1)n1cc(-c2ccncc2)c(-c2ccc(F)cc2)n1 (stereo not shown) [Compound 101],–,–,2.17,–,–,–,–,–,–,pest or weed control at 250 ppm (Rhizoctonia solani): 95%
N#CCCn1cc(-c2ccncc2)c(-c2ccc(F)cc2)n1 [Compound 146],–,–,0.81,97%,100%,100%,95%,–,–,inhibition at 50 µM (Fusarium proliferatum; [12]): 41%; inhibition at 50 µM (Fusarium proliferatum; [13]): 100%; inhibition at 50 µM (Aspergillus parasiticus; [14]): 100%; inhibition at 50 µM (Aspergillus parasiticus; [15]): 99%
CCC(=O)Nc1cc(-c2cn(CC(C)C)nc2-c2ccc(F)cc2)ccn1 [Compound 155],–,–,2.51,97%,100%,100%,95%,99%,–,inhibition at 50 µM (Fusarium proliferatum; [12]): 97%; inhibition at 50 µM (Fusarium proliferatum; [13]): 100%; inhibition at 50 µM (Aspergillus parasiticus; [14]): 100%; inhibition at 50 µM (Aspergillus parasiticus; [15]): 100%; pest or weed control at 1000 ppm (Fusarium graminearum [6]): 88%
CCC(C)n1cc(-c2ccnc(NC(=O)C3CC3)c2)c(-c2ccc(F)cc2)n1 (stereo not shown) [Compound 167],–,–,–,100%,99%,–,100%,100%,2.56,pest or weed control at 100 ppm (Venturia inaequalis): 89%; pest or weed control at 1000 ppm [8]: 100%; pest or weed control at 1000 ppm (Leptosphaeria nodorum): 92%; pest or weed control at 1000 ppm (Fusarium graminearum [6]): 100%
CC(C)Cn1cc(-c2ccnc(NC(C)C)n2)c(-c2ccc(F)cc2)n1 [Compound 174],–,–,–,–,–,100%,100%,80%,2.39,pest or weed control at 250 ppm (Rhizoctonia solani): 93%; pest or weed control at 1000 ppm (Septoria tritici): 90%; pest or weed control at 100 ppm (Venturia inaequalis): 100%; pest or weed control at 1000 ppm (Leptosphaeria nodorum): 93%; pest or weed control at 100 ppm (Plasmopara viticola): 70%
CC(c1cnc(Cl)s1)n1cc(-c2ccncc2)c(-c2ccc(F)cc2)n1 (stereo not shown) [Compound 176],–,–,–,–,–,100%,–,–,1.82,pest or weed control at 250 ppm (Rhizoctonia solani): 97%
CCn1cc(-c2ccnc(NC(=O)COC)c2)c(-c2ccc(F)cc2)n1 [Compound 203],–,–,–,100%,100%,93%,95%,–,2.2,inhibition at 50 µM (Fusarium proliferatum; [12]): 99%; inhibition at 50 µM (Fusarium proliferatum; [13]): 100%; inhibition at 50 µM (Aspergillus parasiticus; [14]): 100%; inhibition at 50 µM (Aspergillus parasiticus; [15]): 100%
COCCn1cc(-c2ccnc(NC(=O)Cc3ccccc3)c2)c(-c2ccc(F)cc2)n1 [Compound 212],–,–,–,–,–,95%,96%,98%,2.6,pest or weed control at 1000 ppm (Septoria tritici): 71%; pest or weed control at 100 ppm (Venturia inaequalis): 85%; pest or weed control at 1000 ppm [8]: 75%; pest or weed control at 1000 ppm (Leptosphaeria nodorum): 71%; pest or weed control at 100 ppm (Plasmopara viticola): 83%
